Assay results taken from patent publication US20100190737A1, “COMPOSITIONS COMPRISING INOSINE AND OROTIC ACID AND METHODS OF USE THEREOF FOR THE TREATMENT OF CERTAIN HEART CONDITIONS AND ENHANCEMENT OF WORK CAPACITY” (NUTRITIONAL RESEARCH GROUP LLC, priority 2009, published 2010).

How the values were obtained:
mice = test: Short term (14 day) work capacity: swimming lengths within 30 minutes, hepatic glycogen; type: in vivo, mouse
Method: Seventy two animals (mice) were divided into 12 groups of 6 animals each; a control group (untreated) and 11 test groups that were intragastrically administered varying daily doses of inosine, potassium orotate or an inosine plus potassium orotate combination (the “combination”) for 14 days. […] The swimming exercise consisted of forcing the animals to perform repetitive swimming in a three meter long channel until exhaustion. The level of exhaustion was determined by a count of the number of swimming lengths which each animal did within 30 minutes. A lower number of swimming lengths indicated a greater level of exhaustion, whereas a higher number of lengths indicated a greater work capacity.

[1] = system: rats with experimental aortic stenosis; test: Short term (7 day) experimental aortic stenosis: heart weight and swimming to exhaustion; type: in vivo, rat; conditions: EAS rats; for Heart Weight: intragastric daily
Excerpt: There are two 7 day experiments in this portion of the study; a preliminary 7 day study with 54 rats in 9 groups (6 rats per group) to determine optimal dosage levels for the separate inosine or potassium orotate ingredients for farther experimentation by determination of maximal heart weight development and work capacity; and then a study with 30 rats in 5 groups (6 rats per group) using the optimal single ingredient dosage levels for comparison with the results of a composition of the ingredients. All compounds were administered intragastrically through a tube after being dissolved in approximately 1 ml of water.
A single control group received a sham operation, while the rest of the groups received experimental aortic stenosis (“EAS”) operations (all according to Beznak in Journal Physiol. (Lond.) 120.23P, 1953 as modified by Kogan, Bull eksper. Biol. Med., 26:112, 1961 and then the other 13 groups received various treatments and dosages of inosine or potassium orotate or a composition of the two ingredients after the optimal inosine and potassium orotate dosages were determined. All animals were tested at the beginning and end of the experiment for swimming to exhaustion times with a 7.5% body weight load attached to their tails.
Sach compound, i.e., inosine and potassium orotate, was administered at different doses and the level of heart hypertrophy and work capacity was observed. Each of the compounds was evaluated in four doses: 12.5 mg/kg, 25 mg/kg, 50 mg/kg and 100 mg/kg body weight. Six animals were used in each group for inosine [4 groups] and potassium orotate [4 groups] plus the one control group (sham operated, no treatment); 54 animals in total.
Thirty white rats were divided into 5 groups (6 animals in each group). Group I was a sham-operated control group, Group II animals with experimental aortic stenosis but were untreated, Groups III, IV & V animals, all with experimental aortic stenosis received by an intragastric tube each day, either inosine (25 mg/kg body weight), potassium orotate (50 mg/kg body weight) or an composition of inosine (25 mg/kg body weight) plus potassium orotate (50 mg/kg body weight), respectively.

[2] = system: chinchilla rabbits with experimental myocardial infarction; test: Experimentally-induced myocardial infarction (coronary artery ligation); type: in vivo, rabbit; conditions: for NN of Animals With Necrosis: of 10 animals; for EKG Q: oral 100 mg/kg BW of each ingredient daily
Method: Histological, light microscopic methods of investigation have been employed to study the zone of necrosis, perinecrotic zone and myocardium regions spaced from the time of infarction by 7 and 14 days after the infarction event. Dynamic electrocardiographic observation over the animals was carried out during the first day and during the following 7 and 14 days. The study of the total cross-sectional patterns of a rabbit's heart has made it possible to precisely define these zones. The first Group of 10 animals was sham-operated without treatment (Group I, positive control-Intact, no MI). […] Group II animals were without treatment (negative control-MI Control).

[3] = seventh day, inosine 25 mg/kg BW, potassium orotate 50 mg/kg BW, alone or together
[4] = seventh day, inosine 25 mg/kg BW, potassium orotate 50 mg/kg BW, alone or together, listed as Inosine

For OC[C@H]1O[C@@H](n2cnc3c(O)ncnc32)[C@H](O)[C@@H]1O [inosine], the Swimming lengths (mice; 12.5 mg/kg BW daily for 14 days intragastrically, within 30 minutes, control 24.9) was 33.9, the “increase in number of swimming lengths” value (mice; 12.5 mg/kg/body weight daily, 14 days) was 35.4% and the Swimming lengths (mice; 25 mg/kg BW, 14 days) was 46.4. The “increase in number of swimming lengths” value (mice; 25 mg/kg/body weight daily, 14 days) was 85.6%, the Swimming lengths (mice; 50 mg/kg BW, 14 days) was 39.6 and the “increase in number of swimming lengths” value (mice; 50 mg/kg/body weight daily, 14 days) was 58.5%. For the same compound, the Swimming lengths (mice; 100 mg/kg BW, 14 days) was 31.1, the “increase in number of swimming lengths” value (mice; 100 mg/kg/body weight daily, 14 days) was 24.3% and the “mean decrease of hepatic glycogen stores during the swimming exercise” value (mice; controls 67.5% from baseline) was 24.5%. The “increased hepatic glycogen content” value (mice; inosine 25 mg/kg, potassium orotate 50 mg/kg, or combination) was 21%, the swimming time ([1]; day 7, 12.5 mg/kg intragastrically, EAS control 15±5.0, sham 62±5.0) was 18 ± 2.0 min and the swimming time ([1]; day 7, 25 mg/kg) was 28 ± 3.0 min. The swimming time ([1]; day 7, 50 mg/kg) was 29 ± 3.0 min, the swimming time ([1]; day 7, 100 mg/kg) was 27.0 ± 3.0 min and the relative heart weight ([1]; seventh day, 12.5 mg/kg, EAS control 400±8.9, sham 300±5.0) was 410±9.0 mg/100 g. body weight. The relative heart weight ([1]; seventh day, 25 mg/kg) was 440±12 mg/100 g. body weight, the relative heart weight ([1]; seventh day, 50 mg/kg) was 442±12 mg/100 g. body weight and the relative heart weight ([1]; seventh day, 100 mg/kg) was 440±10 mg/100 g. body weight. For the same compound, the “swimming time” value [1, 3] was 31 ± 3.0 min, the “Heart Weight” value [1, 3] was 450±12 mg/100 gr BW and the “Heart Weight” value [1, 4] was 450 ± 12 mg/100 gr BW. The “swimming time” value [1, 4] was 31 ± 3.0 min, the “Thickness of Left Ventricular Wall” value ([2]; Day 7) was 5.2 ± 0.72 mm and the “EKG R” value ([2]; Day 7, 100 mg/kg BW each) was 4.1 ± 0.30 mm. The “NN of Animals With Necrosis” value ([2]; Day 7, MI control 10) was 5, the “EKG Q” value ([2]; Day 7) was 1.1 ± 0.03 mm and the “EKG QRS” value ([2]; Day 14) was 0.068 ± 0.003 s. For the same compound, the “EKG R” value ([2]; Day 14) was 4.3 ± 0.28 mm, the “Thickness of Left Ventricular Wall” value ([2]; Day 14) was 5.6 ± 0.21 mm and the “NN of Animals With Necrosis” value ([2]; Day 14, MI control 3) was 0. The “EKG Q” value ([2]; Day 14) was 0.8 ± 0.02 mm, the reduction in necroses ([2]; administered individually, 100 mg/kg) was 50% and the “hemorrhages or infiltration in the infarction zone” value ([2]; by the fourteenth day) was “virtually had no hemorrhages or infiltration in the infarction zone”. For the same compound, the “restoration of EKG readings” value ([2]; by the seventh experimental day) was “nearly a complete restoration of the voltage of EKG waves and of the systolic index”.
